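Cells were grown in 96-well plates and exposed to each compound for 48 hours at five concentrations; endpoints were interpolated linearly between bracketing concentrations, or set to the highest concentration if not reached. The concentration for 50% growth inhibition is given as GI50. The concentration for full growth arrest is given as TGI.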
Columns and labels:
Assay in all cases: DTP human tumour cell line panel, 48 h
[1] = tested on: CAKI-1 renal
[2] = tested on: HCC-2998 colon
[3] = tested on: HCT-15 colon
[4] = tested on: HS 578T breast
[5] = tested on: IGROV1 ovarian
[6] = tested on: MALME-3M melanoma
[7] = tested on: MCF7 breast
[8] = tested on: RXF 393 renal
[9] = tested on: SN12C renal
[10] = tested on: U251 CNS

CN1CCN(Cc2ccc(NC(=O)c3cncc(C#Cc4cnn5ccccc45)c3)cc2C(F)(F)F)CC1
GI50 [1]: 0.94 µM
TGI [1]: 4.56 µM
GI50 [2]: 0.902 µM
TGI [2]: 3.07 µM
GI50 [3]: 0.818 µM
TGI [3]: 3.66 µM
GI50 [4]: 0.735 µM
TGI [4]: 2.91 µM
GI50 [5]: 0.858 µM
TGI [5]: 3.61 µM
GI50 [6]: 0.604 µM
TGI [6]: 1.45 µM
GI50 [7]: 0.408 µM
TGI [7]: 2.29 µM
GI50 [8]: 0.693 µM
TGI [8]: 1.66 µM
GI50 [9]: 0.825 µM
TGI [9]: 3.85 µM
GI50 [10]: 1.06 µM
TGI [10]: 4.15 µM

COc1cc2ncn(-c3cc(OCc4ccccc4C(F)(F)F)c(C(C)=O)s3)c2cc1OC
GI50 [1]: > 25 µM
TGI [1]: > 25 µM
GI50 [2]: > 25 µM
TGI [2]: > 25 µM
GI50 [3]: > 25 µM
TGI [3]: > 25 µM
GI50 [4]: 19.3 µM
TGI [4]: > 25 µM
GI50 [5]: > 25 µM
TGI [5]: > 25 µM
GI50 [6]: > 16.8 µM
TGI [6]: > 25 µM
GI50 [7]: > 25 µM
TGI [7]: > 25 µM
GI50 [8]: > 21.5 µM
TGI [8]: > 25 µM
GI50 [9]: > 21.7 µM
TGI [9]: > 25 µM
GI50 [10]: > 25 µM
TGI [10]: > 25 µM

N#Cc1c(N)nc(N2CCSCC2)c(C#N)c1-c1ccc(O)cc1
GI50 [1]: 26.7 µM
TGI [1]: > 100 µM
GI50 [2]: 17.2 µM
TGI [2]: 36.6 µM
GI50 [3]: 17.6 µM
TGI [3]: 54.1 µM
GI50 [4]: 25.1 µM
TGI [4]: > 100 µM
GI50 [5]: 32.6 µM
TGI [5]: > 100 µM
GI50 [6]: 15.2 µM
TGI [6]: 94.4 µM
GI50 [7]: 14.1 µM
TGI [7]: 40.2 µM
GI50 [8]: 35.3 µM
TGI [8]: > 100 µM
GI50 [9]: 19.8 µM
TGI [9]: 50.2 µM
GI50 [10]: 15 µM
TGI [10]: 28.3 µM

O=C(Nc1cccc(Cl)c1)c1cc(N=Nc2ccc([N+](=O)[O-])cc2Cl)ccc1O
GI50 [1]: 1.93 µM
TGI [1]: 4.02 µM
GI50 [2]: 1.95 µM
TGI [2]: 5.53 µM
GI50 [3]: 1.89 µM
TGI [3]: 5.85 µM
GI50 [4]: 1.95 µM
TGI [4]: 7.71 µM
GI50 [5]: 3.12 µM
TGI [5]: 19 µM
GI50 [6]: 2.17 µM
TGI [6]: 5.92 µM
GI50 [7]: 2.03 µM
TGI [7]: 5.79 µM
GI50 [8]: 2.56 µM
TGI [8]: 6.99 µM
GI50 [9]: 2.86 µM
TGI [9]: 8.87 µM
GI50 [10]: 1.93 µM
TGI [10]: 7 µM

CC(C)CCC(=O)[C@@H](C)[C@H]1[C@@H](OC2OCC(O)C(O)C2NS(C)(=O)=O)C[C@H]2[C@@H]3CC=C4C[C@@H](O)CC[C@]4(C)[C@H]3CC[C@]12C (stereo not given in full)
GI50 [1]: 1.16 µM
TGI [1]: 5.56 µM
GI50 [2]: 5.04 µM
TGI [2]: 11.7 µM
GI50 [3]: 2.23 µM
TGI [3]: 9.44 µM
GI50 [4]: 0.423 µM
TGI [4]: 3.41 µM
GI50 [5]: 2.22 µM
TGI [5]: > 40 µM
GI50 [6]: 0.91 µM
TGI [6]: 4.29 µM
GI50 [7]: 1.26 µM
TGI [7]: 5.73 µM
GI50 [8]: 0.178 µM
TGI [8]: 0.783 µM
GI50 [9]: 8.36 µM
TGI [9]: > 40 µM
GI50 [10]: 0.901 µM
TGI [10]: 7.8 µM

CC[C@]12C=CCN3CC[C@@]4(c5ccc(OC)cc5N(C)[C@H]4[C@@](O)(C(=O)OC)[C@@H]1OC(=O)CCC(=O)N[C@H](Cc1c[nH]c4ccccc14)C(=O)OC)[C@@H]32
GI50 [1]: 3.65 µM
TGI [1]: 17 µM
GI50 [2]: 6.01 µM
TGI [2]: 37.9 µM
GI50 [3]: 3.51 µM
TGI [3]: 16.7 µM
GI50 [4]: 5.52 µM
TGI [4]: 28.7 µM
GI50 [5]: 4.3 µM
TGI [5]: 24.1 µM
GI50 [6]: 2.6 µM
TGI [6]: 8.09 µM
GI50 [7]: 2.98 µM
TGI [7]: 16.1 µM
GI50 [8]: 2.22 µM
TGI [8]: 5.72 µM
GI50 [9]: 3.68 µM
TGI [9]: 23.9 µM
GI50 [10]: 8.08 µM
TGI [10]: 24.9 µM

CCOC(=O)c1csc(NC(=O)COc2cccc(/C=C3\CSc4ccccc4C3=O)c2)n1
GI50 [1]: 1.26 µM
TGI [1]: 18.2 µM
GI50 [2]: 0.0447 µM
TGI [2]: 0.382 µM
GI50 [3]: 2.06 µM
TGI [3]: 4.62 µM
GI50 [4]: 1.45 µM
TGI [4]: 7.36 µM
GI50 [5]: 0.166 µM
TGI [5]: 0.363 µM
GI50 [6]: 0.296 µM
TGI [6]: 1.22 µM
GI50 [7]: 1.13 µM
TGI [7]: 7.25 µM
GI50 [8]: 2.86 µM
TGI [8]: 11.2 µM
GI50 [9]: 1.38 µM
TGI [9]: 6.58 µM
GI50 [10]: 0.585 µM
TGI [10]: 1.31 µM

CC(=O)NC(CCCCN(Cc1ccccc1)C(=O)N(CCCl)N=O)C(=O)NCc1ccccc1 (stereo not given)
TGI [1]: 97.7 µM
TGI [2]: > 100 µM
TGI [3]: > 100 µM
TGI [4]: 49.7 µM
TGI [5]: 60 µM
TGI [6]: 58.1 µM
TGI [7]: > 100 µM
TGI [8]: 51.3 µM
TGI [9]: > 77.8 µM
TGI [10]: 39.7 µM

— PubChem BioAssay (NCI)
